Measured values published in patent publication US20180045715A1, “STRUCTURE AND FUNCTION OF THE SALICYCLIC ACID BINDING SITES ON HUMAN HMGB1 AND METHODS OF USE THEREOF FOR THE RATIONAL DESIGN OF BOTH SALICYCLIC ACID DERIVATIVES AND OTHER AGENTS THAT ALTER ANIMAL AND PLANT HMGBS ACTIVITIES” (Boyce Thompson Institute for Plant Research, Inc., priority 2015, published 2018).

Experiments:
[1] = system: fMLP-induced migration of NIH/3T3 fibroblast cells; assay: Chemotaxis assay: fMLP-induced fibroblast migration (specificity control); format: cell-based, mouse; settings: 0.1 nM fMLP
Protocol: Cell migration was assayed using Boyden chambers (Venereau et al., 2012). The downside of PVP-free polycarbonate filters (8 μm pores; Millipore) was coated with 50 μg/ml fibronectin (Sigma). Serum-free DMEM (negative control), DMEM containing 0.1 nM fMLP (positive control; Sigma), or DMEM containing 1 nM HMGB1^RE or HMGB1^SS were placed in the lower chamber, together with different concentrations of SA (Sigma). The mouse 3T3 fibroblast cells were cultured in DMEM media supplemented with 10% CS until 90% confluence, washed twice with PBS to eliminate any floating cells, and harvested with trypsin. 50,000 cells in 200 μL were added to the upper chamber, and cells were left to migrate for 3 h at 37° C. Non-migrating cells were removed with a cotton swab, and migrated cells were fixed with ethanol and stained with Giemsa.
HMGB1^RE acts as a chemo-attractant that mediates migration of several cell types, including monocytes, fibroblasts, mesoangioblasts, smooth muscle cells, and colon cancer cells (Venereau et al., 2012). To determine whether SA alters HMGB 1's chemo-attractant activity, a chemotaxis assay was performed with mouse 3T3 fibroblasts.

[2] = system: LPS-induced expression of COX-2, IL-6 and TNFα; assay: LPS-induced cytokine and COX-2 gene expression in human macrophages (qPCR); format: cell-based; settings: 10 ng/ml LPS, 100 μM SA or 1 μM ac3AESA
Protocol: Human HeLa cells were grown in T75 flasks in DMEM medium supplemented with penicillin (10,000 IU/mL) streptomycin ([…]), and 10% fetal calf serum. Ptgs2−/− MEFs were derived from Ptgs2−/− E16 mouse embryos, obtained from the mating of Ptgs2+/− mice purchased from Taconic Biosciences. PBMCs were isolated from buffy coats of donor blood (Hospital of Magenta, Milan, Italy) by Ficoll gradient centrifugation (Lymphoprep; AXIS-SHIELD. CD14+ monocytes were isolated by positive immunoselection (CD14 Microbeads; Miltenyi Biotec) according to the manufacturer's instructions, and differentiated into macrophages using X-Vivo medium supplemented with 1% heat inactivated human serum, GM-CSF, and M-CSF.
Total RNAs were isolated using the Illustra RNAspin Mini kit (GE Healthcare), and complementary DNA (cDNA) was obtained by retro-transcription with oligo(dT) primers (Invitrogen, Carlsbad, Calif., USA) and SuperScript II Reverse Transcriptase (Invitrogen) following the manufacturers' instructions. Quantitative real-time PCR was performed using a LightCycler480 (Roche Molecular Diagnostics), in duplicates, using SYBR Green I master mix and the oligonucleotides listed in Table of primers below. The ΔCt method was used for quantification, and the β-actin gene was used for normalization.

[3] = after intake of 500 mg of aspirin; cited from earlier work
[4] = biological target: T1, CXCL12 (Homo sapiens, UniProt P48061); assay: WaterLOGSY NMR with CXCL12; format: binding; settings: 6 mM SA or 5 mM ac3AESA, 20 μM protein
T1 construct: full-length disulfide-intact CXCL12
Excerpt: (§1) NMR can be used to detect protein ligand interactions either by protein-detected experiments (Lepre, Moore et al. 2004), detecting changes in the frequencies of resonances of the protein sample due to ligand binding (protein-detected chemical shift perturbation (CSP) experiments), or by ligand-detected experiments (Lepre, Moore et al. 2004), in which NMR properties of the ligands due to ligand-protein interactions are detected. Protein-detected ligand binding experiments are usually done using isotope-enriched protein samples which can be studied by isotope-filtered NMR experiments, including for example ^15N-^1H-HSQC (Kay, Keifer et al. 1992). Ligand-detected experiments include the Waterlogsy experiment (Meyer and Peters 2003, Lepre, Moore et al. 2004, Furihata, Shimotakahara et al. 2008), which detects interactions in the ternary complex formed by the protein, the ligand, and one or more water molecules, and the Saturation Transfer Difference (STD) NMR experiments (Mayer and Meyer 2001, Lepre, Moore et al. 2004, Wang, Liu et al. 2004), which detects magnetization transfer from the protein to the ligand in the protein-ligand complex. The Waterlogsy experiment is a more sensitive experiment, typically employed to detect qualitatively if there is an interaction between protein and ligand. […]

[5] = biological target: T2, AtHMGB3 (Arabidopsis thaliana, UniProt P93047); assay: Callose staining: AtHMGB3-induced callose deposition in Arabidopsis leaves; format: in vivo; set-up: providing a full length Arabidopsis thaliana HMGB1 or HMGB3 (AtHMGB1 or AtHMGB3) protein; 6x His; made in house; host or cells: Escherichia coli BL21; settings: 100 nM AtHMGB3, 15 h
T2 sequence (P93047 1-141): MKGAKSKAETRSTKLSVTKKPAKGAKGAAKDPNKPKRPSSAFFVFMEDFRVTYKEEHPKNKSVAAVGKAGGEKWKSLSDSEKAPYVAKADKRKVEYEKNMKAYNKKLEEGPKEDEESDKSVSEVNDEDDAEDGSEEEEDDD
Protocol: Arabidopsis leaves were collected 15 h after infiltration with 100 nM AtHMGB3 or 100 nM Pep1, and then immediately immersed in alcoholic lactophenol (phenol:glycerol:lactic acid:water:ethanol=1:1:1:1:8) to destain the chlorophyll. To remove the background fluorescence, destained leaves were treated with toluidine blue O solution (0.05% toluidine blue O, 0.1 M sodium acetate, pH 4.4) for 30 min, and then rinsed twice with 150 mM K2HPO4 (pH 9.5). Callose was stained with aniline blue solution (0.02% aniline blue, 150 mM K2HPO4, pH 9.5) for 30 min in the absence of light. The aniline blue-stained leaves were mounted with 25% glycerol and analyzed using a Leica DM5500 epifluorescence microscope. The number of callose loci was quantified using an ImageJ (NIH).

[6] = biological target: T3, full-length HMGB1 (Homo sapiens, UniProt P09429); assay: Saturation transfer difference (STD) NMR; format: binding
T3 construct: (i) full length: residues 2-215; hexaHis (TEV-cleavable) (N, cleaved yes); made in house
T3 sequence (P09429 2-215): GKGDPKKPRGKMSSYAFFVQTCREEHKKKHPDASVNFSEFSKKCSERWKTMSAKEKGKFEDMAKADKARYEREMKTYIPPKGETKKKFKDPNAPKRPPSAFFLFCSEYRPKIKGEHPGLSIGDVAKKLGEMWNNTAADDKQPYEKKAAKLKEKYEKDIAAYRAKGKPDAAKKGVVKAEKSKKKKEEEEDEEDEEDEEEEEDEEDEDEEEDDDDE
Excerpt: as §1

T1 sequence (P48061 22-89 limits assumed, species assumed): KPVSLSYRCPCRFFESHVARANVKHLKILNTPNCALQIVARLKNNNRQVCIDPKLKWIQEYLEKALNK

In the case of `O=C(O)c1ccccc1O` [SA, salicylic acid], the “effect on fibroblast migration induced by fMLP” value [1] is listed as “did not affect”, the “effect on LPS-induced expression of cytokine and COX-2 genes” value [2] is listed as “did not suppress” and the “time to reach the stated SA plasma concentration” value [3] is listed as no more than 1 h. The “WaterLOGSY binding to CXCL12” value [4] was “binds”, the “effect on AtHMGB3-induced callose deposition” value [5] was “completely suppressed” and the “STD signal for binding to full-length HMGB1” value ([6]; 20 μM HMGB1, pH 7.4, SA 6 mM, ac3AESA 0.6-5.8 mM) was “no STD signal is detected”. The “ligand concentration at which an STD effect for HMGB1 binding is seen” value ([6]; 20 μM HMGB1, SA tested as high as 6 mM) was “no STD effect”.
